According to patent US8114991B2, “Amino-1,3,5-triazines N-substituted with chiral bicyclic radicals, process for their preparation, compositions thereof, and their use as herbicides and plant growth regulators” (Bayer Cropscience AG, priority 2003, dated 2012):

How the values were obtained:
[1] = test system: harmful plants such as Stellaria media, Lolium multiforum, Amaranthus retroflexus, Sinapis alba, Avena sativa and Setaria viridis; test: Pre-emergence effect on weeds (greenhouse pot test); assay type: in vivo; conditions: application rate of 1 kg or less of active ingredient per hectare; scored after 3 to 4 weeks by comparison with untreated controls
Source text: Seeds or rhizome pieces of monocotyledonous and dicotyledonous weed plants were placed in sandy loam in plastic pots and covered with soil. The compounds according to the invention, which were formulated in the form of wettable powders or emulsion concentrates, were then applied to the surface of the soil cover as aqueous suspension or emulsion at various dosages with an application rate of 600 to 800 l of water per ha (converted).
After the treatment, the pots were placed into a greenhouse and kept under good growth conditions for the weeds. The plant or emergence damage was scored visually after the test plants have emerged after an experimental time of 3 to 4 weeks by comparison with untreated controls.

[2] = test system: harmful plants such as Sinapis alba, Echinochloa crus-galli, Lolium multiflorum, Stellaria media, Cyperus iria, Amaranthus retroflexus, Setaria viridis, Avena …; test: Post-emergence effect on weeds (greenhouse pot test); assay type: in vivo; conditions: application rate of 2 kg or less of active ingredient per hectare; treated in the three-leaf stage; scored after approx. 3 to 4 weeks by comparison with untreated controls

Row | Structure (SMILES) | pre-emergence control of harmful plants (plant or emergence damage scored visually) [1] | herbicidal post-emergence activity against harmful plants (scored visually) [2]
1 | CCc1nc(N)nc(N[C@@H]2CCOc3ccc(C)cc32)n1 [Compound 8.44] | very good pre-emergence control | very good herbicidal post-emergence activity
2 | Cc1ccc2c(c1)[C@H](Nc1nc(N)nc(C(C)C)n1)CCO2 [Compound 8.75] | very good pre-emergence control | very good herbicidal post-emergence activity
3 | Cc1nc(N)nc(N[C@H]2c3ccccc3C[C@@H]2C)n1 [Compound 7.1] | very good pre-emergence control | very good herbicidal post-emergence activity
4 | CCc1nc(N)nc(N[C@@H]2CCc3ccc(OC)cc32)n1 [Compound 8.244] | very good pre-emergence control | very good herbicidal post-emergence activity
5 | C[C@H](Cl)c1nc(N)nc(N[C@@H]2CCc3ccccc32)n1 [Compound 3.24] | very good pre-emergence control | very good herbicidal post-emergence activity
6 | C[C@H](F)c1nc(N)nc(N[C@@H]2CCCc3ccccc32)n1 [Compound 3.11] | very good pre-emergence control | very good herbicidal post-emergence activity
7 | Cc1ccc2c(c1)[C@H](Nc1nc(N)nc([C@@H](C)F)n1)[C@H](C)C2 [Compound 5.2] | very good pre-emergence control | very good herbicidal post-emergence activity
8 | Cc1ccc2c(c1)[C@H](Nc1nc(N)nc(C(C)(C)F)n1)CC2 [Compound 8.196] | very good pre-emergence control | very good herbicidal post-emergence activity
9 | C[C@@H](F)c1nc(N)nc(N[C@@H]2CCOc3c(F)cccc32)n1 [Compound 1.67] | very good pre-emergence control | very good herbicidal post-emergence activity
10 | Cc1nc(N)nc(N[C@H]2c3ccccc3CC[C@@H]2C)n1 [Compound 7.11] | very good pre-emergence control | very good herbicidal post-emergence activity
11 | COCc1nc(N)nc(N[C@H]2c3cc(C)ccc3C[C@@H]2C)n1 [Compound 7.72] | very good pre-emergence control | very good herbicidal post-emergence activity
12 | C[C@@H](Cl)c1nc(N)nc(N[C@@H]2CCCc3ccccc32)n1 [Compound 1.28] | very good pre-emergence control | very good herbicidal post-emergence activity
13 | Nc1nc(CF)nc(N[C@@H]2CCc3ccccc32)n1 [Compound 8.90] | very good pre-emergence control | very good herbicidal post-emergence activity
14 | Nc1nc(CCl)nc(N[C@@H]2CCc3ccccc32)n1 [Compound 8.113] | very good pre-emergence control | very good herbicidal post-emergence activity
15 | CCCC(F)c1nc(N)nc(N[C@@H]2CCCc3ccc(C)cc32)n1 (stereo partly drawn) [Compound 10.66] | very good pre-emergence control | very good herbicidal post-emergence activity
